System: PAF-induced bronchoconstriction
Assay: Effect on bronchoconstriction induced by platelet activating factor (PAF) in guinea pigs (Konzett-Roessler method)
Type: in vivo, guinea pig (male Hartley)
Conditions: oral, 1 hour before PAF (1 μg/kg i.v.)
Experimental: [Effect on bronchoconstriction induced by platelet activating factor (PAF) in guinea pigs]
Male Hartley guinea pigs (body weights about 500 g) were used. The bronchoconstriction reaction in the guinea pig which has intravenously been administered with PAF (1 μg/kg) was measured by the Konzett-Roessler method.
The trachea of the guinea pig with its back fixed was incised under anesthesia condition with urethane (intravenous injection, 1.5 g/kg) and connected with an artificial respirator via a cannula. The branch of the tracheal cannula was connected with a transducer (7020 type, manufactured by Ugobasile). Air was sent to the trachea at the rate of 3 to 7 ml per stroke, 70 strokes/min. and at load pressure of 10 cm H2 O to lung, and overflowed air volume was recorded with Rectegraph (Recte-Hori-8s, Sanei Sokuki Co., Ltd., Japan) via transducer. After the guinea pig was treated with gallamine (intravenous injection, 1 mg/kg), 1 μg/kg of PAF dissolved in a physiological saline solution was administered to the guinea pig via jugular venous cannula and the bronchoconstriction reaction induced thereby was recorded for 15 minutes. The drug (3 mg/kg and 10 mg/kg respectively) suspended in a 5% gum arabic solution was administered orally 1 hour before the injection of PAF.

| Structure (SMILES) | Inhibition (%) of PAF-induced bronchoconstriction (3 mg/kg) | Inhibition (%) of PAF-induced bronchoconstriction (10 mg/kg) |
| --- | --- | --- |
| CCC(CC)(COc1cc(C)c2nncn2n1)CS(N)(=O)=O [Example 1, 6-(2,2-diethyl-3-sulfamoyl-1-propoxy)-8-methyl-[1,2,4]triazolo[4,3-b]pyridazine] | 85.8% | 100% |
| CCC(CC)(COc1ccc2nncn2n1)CS(N)(=O)=O [Example 3, 6-(2,2-diethyl-3-sulfamoyl-1-propoxy)[1,2, 4]triazolo[4,3-b]pyridazine] | 51.1% | 61.2% |
| CC(C)(COc1ccc2nncn2n1)CS(N)(=O)=O [Example 5, 6-(2,2-dimethyl-3-sulfamoyl-1-propoxy)[1,2,4]triazolo[4,3-b]pyridazine] | 22.4% | 41.2% |

Reference: patent US5492909A, “Triazolopyridazine derivatives, their production and use” (Takeda Chemical Industries, Ltd., priority 1993, dated 1996)
